Reference: patent US10023568B2, “Naphthyridine derivatives useful as αvβ6 integrin antagonists” (GlaxoSmithKline Intellectual Property Development Limited, priority 2013, dated 2018)
Converted amounts (≈) assume the structure as drawn.

Columns and labels:
physchem = details: kinetic from dmso stock
Experimental: The Chemiluminescent nitrogen detection (CLND) kinetic solubility was measured according to N. Bhattachar et. al. J. Pharm. Biomed.

[1] = target: T1, human soluble αvβ6 protein (Homo sapiens, UniProt P06756+P18564); assay: Fluorescence Polarisation Assay, binding of human soluble αvβ6 protein to an RGD-containing peptide; details: read-out: affinity (pIC50) for the human αvβ6 protein in the Fluorescence Polarisation Assay (converted)
T1 construct: The expressed protein contained amino acid 31-987 of αv followed by a Tev cleavage site; Tev cleavage site (C); 6His tag (C); Prescission protease site (C); FLAG tag (C); made in house; host or cells: baculovirus expression system (pFastBac dual construct)
Description: Binding of human soluble αvβ6 protein to an RGD-containing Peptide by Fluorescence Polarisation Assay:
The extracellular domains of αv and β6 were co-expressed from a pFastBac dual construct using the baculovirus expression system. […] The protein was secreted into the media on expression; it was purified using diafiltration followed by purification using the His tag followed by the FLAG tag and then size exclusion chromatography. […] A fluorescent binding peptide based on LAPβ3 was synthesised chemically, having the sequence Ac-[…](Cy3B)-NH2. An assay buffer of 25 mM HEPES pH7.4, 150 mM NaCl, 1 mM CHAPS and […] was used. To black low volume 384 well plates were added […] of test compound in 100% DMSO, followed by […] αvβ6 protein. Plates were incubated at room temperature for 15 minutes before addition of […] fluorescent RGD-containing peptide. […] For active antagonists in the assay, data were fitted to a 4 parameter logistic equation for IC50 determinations.

αvβ6 = target: T2, αvβ6 (Homo sapiens, UniProt P06756+P18564); assay: Cell Adhesion Assay K562-αvβ6 (LAP-b1); format: cell-based; details: K562-αvβ6 cells, ligand LAP-b1, 2 mM MgCl2; read-out: affinity in the cell Adhesion Assays αvβ6 pIC50 (converted)
T2 construct: expressed in transfected cells; host or cells: K562-αvβ6
Experimental: (§1) The following cell lines were used, with ligands in brackets: K562-α5β1 (Fibronectin), K562-αvβ3 (LAP-b1), K562-αvβ5 (Vitronectin), K562-αvβ6 (LAP-b1), K562-αvβ8 (LAP-b1). The divalent cation used to facilitate adhesion was 2 mM MgCl2. Adhesion was quantified by cell labelling with the fluorescent dye BCECF-AM (Life Technologies), where cell suspensions at 6×10^6 cells/mL were incubated with […] of 30 mM BCECF-AM at 37° C. for 10 minutes, before dispensing into the assay plate. At the assay conclusion cells that adhered were lysed using 50 μL/well of 0.5% Triton X-100 in H2O to release fluorescence. Fluorescence intensity was detected using an Envision® plate reader (Perkin Elmer). For active antagonists in the assay, data were fitted to a 4 parameter logistic equation for IC50 determinations.

αvβ3 = target: T3, αvβ3 (Homo sapiens, UniProt P05106+P06756); assay: Cell Adhesion Assay K562-αvβ3 (LAP-b1); format: cell-based; details: K562-αvβ3 cells, ligand LAP-b1, 2 mM MgCl2; read-out: affinity in the cell Adhesion Assays αvβ3 pIC50 (converted)
T3 construct: expressed in transfected cells; host or cells: K562-αvβ3
Experimental: as §1

αvβ5 = target: T4, αvβ5 (Homo sapiens, UniProt P06756+P18084); assay: Cell Adhesion Assay K562-αvβ5 (Vitronectin); format: cell-based; details: K562-αvβ5 cells, ligand Vitronectin, 2 mM MgCl2; read-out: affinity in the cell Adhesion Assays αvβ5 pIC50 (converted)
T4 construct: expressed in transfected cells; host or cells: K562-αvβ5
Experimental: as §1

αvβ8 = target: T5, αvβ8 (Homo sapiens, UniProt P06756+P26012); assay: Cell Adhesion Assay K562-αvβ8 (LAP-b1); format: cell-based; details: K562-αvβ8 cells, ligand LAP-b1, 2 mM MgCl2; read-out: affinity in the cell Adhesion Assays αvβ8 pIC50 (converted)
T5 construct: expressed in transfected cells; host or cells: K562-αvβ8
Experimental: as §1

T2 sequence (P06756 31-1048): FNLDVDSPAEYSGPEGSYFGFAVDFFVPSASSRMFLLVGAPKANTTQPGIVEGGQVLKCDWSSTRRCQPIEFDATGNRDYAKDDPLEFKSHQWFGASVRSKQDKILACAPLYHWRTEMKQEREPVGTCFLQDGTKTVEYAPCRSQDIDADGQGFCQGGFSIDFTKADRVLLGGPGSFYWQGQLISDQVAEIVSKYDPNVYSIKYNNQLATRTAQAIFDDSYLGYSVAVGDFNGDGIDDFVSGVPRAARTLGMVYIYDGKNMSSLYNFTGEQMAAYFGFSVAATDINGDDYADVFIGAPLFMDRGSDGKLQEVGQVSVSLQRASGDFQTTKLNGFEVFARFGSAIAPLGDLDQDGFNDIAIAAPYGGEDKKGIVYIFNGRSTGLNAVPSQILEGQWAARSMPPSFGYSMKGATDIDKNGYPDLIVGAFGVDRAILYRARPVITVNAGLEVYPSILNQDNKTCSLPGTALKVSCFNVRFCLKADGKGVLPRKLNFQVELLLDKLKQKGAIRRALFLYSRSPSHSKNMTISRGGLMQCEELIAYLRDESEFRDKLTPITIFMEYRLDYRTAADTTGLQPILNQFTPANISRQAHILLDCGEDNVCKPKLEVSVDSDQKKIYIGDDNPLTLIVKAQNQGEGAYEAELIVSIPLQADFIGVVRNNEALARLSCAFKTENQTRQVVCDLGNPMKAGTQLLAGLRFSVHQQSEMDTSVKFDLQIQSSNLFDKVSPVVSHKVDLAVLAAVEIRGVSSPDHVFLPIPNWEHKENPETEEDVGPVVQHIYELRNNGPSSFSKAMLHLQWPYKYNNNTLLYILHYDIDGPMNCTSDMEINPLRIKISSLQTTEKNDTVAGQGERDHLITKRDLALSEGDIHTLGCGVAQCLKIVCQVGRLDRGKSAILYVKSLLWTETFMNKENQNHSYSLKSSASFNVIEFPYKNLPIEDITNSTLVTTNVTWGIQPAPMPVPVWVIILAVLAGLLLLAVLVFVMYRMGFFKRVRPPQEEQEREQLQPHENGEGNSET
T2 sequence (P18564 22-788): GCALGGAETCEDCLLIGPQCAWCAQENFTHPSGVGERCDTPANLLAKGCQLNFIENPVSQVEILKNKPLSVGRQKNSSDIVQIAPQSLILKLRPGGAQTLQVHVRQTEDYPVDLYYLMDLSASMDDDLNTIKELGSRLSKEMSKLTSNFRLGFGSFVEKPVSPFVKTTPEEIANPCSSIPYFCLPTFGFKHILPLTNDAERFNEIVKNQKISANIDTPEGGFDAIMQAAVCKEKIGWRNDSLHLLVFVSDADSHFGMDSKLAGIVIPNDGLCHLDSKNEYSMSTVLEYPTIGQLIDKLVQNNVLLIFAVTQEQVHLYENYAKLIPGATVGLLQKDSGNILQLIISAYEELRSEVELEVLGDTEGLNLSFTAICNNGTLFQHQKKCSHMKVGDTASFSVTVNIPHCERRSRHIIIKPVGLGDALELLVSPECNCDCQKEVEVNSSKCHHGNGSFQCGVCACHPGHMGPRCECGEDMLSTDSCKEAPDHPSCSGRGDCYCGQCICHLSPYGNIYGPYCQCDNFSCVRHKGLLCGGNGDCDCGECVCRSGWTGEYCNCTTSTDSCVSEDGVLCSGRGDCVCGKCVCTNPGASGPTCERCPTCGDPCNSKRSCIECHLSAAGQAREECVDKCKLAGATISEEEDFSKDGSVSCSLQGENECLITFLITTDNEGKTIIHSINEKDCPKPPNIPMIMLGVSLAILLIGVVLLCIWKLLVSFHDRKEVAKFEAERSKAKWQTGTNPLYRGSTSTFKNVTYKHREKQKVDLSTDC
T3 sequence (P06756 31-1048): as the sequence (P06756 31-1048) above
T3 sequence (P05106 27-788): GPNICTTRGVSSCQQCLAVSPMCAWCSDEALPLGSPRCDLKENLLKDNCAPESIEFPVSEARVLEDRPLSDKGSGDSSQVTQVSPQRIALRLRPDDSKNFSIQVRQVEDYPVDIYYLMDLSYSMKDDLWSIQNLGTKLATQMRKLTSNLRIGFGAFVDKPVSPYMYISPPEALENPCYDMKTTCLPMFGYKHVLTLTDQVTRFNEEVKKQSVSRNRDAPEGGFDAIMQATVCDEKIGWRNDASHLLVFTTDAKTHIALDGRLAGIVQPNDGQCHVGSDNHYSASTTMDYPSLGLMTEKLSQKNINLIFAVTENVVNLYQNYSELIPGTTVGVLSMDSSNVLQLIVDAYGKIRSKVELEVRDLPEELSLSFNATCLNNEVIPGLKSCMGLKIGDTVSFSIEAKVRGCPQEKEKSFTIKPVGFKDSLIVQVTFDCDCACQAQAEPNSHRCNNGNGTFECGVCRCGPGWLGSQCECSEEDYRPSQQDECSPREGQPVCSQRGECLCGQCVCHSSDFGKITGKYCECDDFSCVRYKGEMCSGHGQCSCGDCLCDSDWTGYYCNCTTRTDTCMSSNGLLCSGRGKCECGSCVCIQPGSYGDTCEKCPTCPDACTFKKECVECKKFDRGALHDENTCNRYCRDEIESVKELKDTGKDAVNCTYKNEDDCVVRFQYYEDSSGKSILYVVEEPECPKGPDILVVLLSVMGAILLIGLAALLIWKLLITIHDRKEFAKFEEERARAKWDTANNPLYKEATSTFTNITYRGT
T5 sequence (P06756 31-1048): as the sequence (P06756 31-1048) above
T5 sequence (P26012 43-769): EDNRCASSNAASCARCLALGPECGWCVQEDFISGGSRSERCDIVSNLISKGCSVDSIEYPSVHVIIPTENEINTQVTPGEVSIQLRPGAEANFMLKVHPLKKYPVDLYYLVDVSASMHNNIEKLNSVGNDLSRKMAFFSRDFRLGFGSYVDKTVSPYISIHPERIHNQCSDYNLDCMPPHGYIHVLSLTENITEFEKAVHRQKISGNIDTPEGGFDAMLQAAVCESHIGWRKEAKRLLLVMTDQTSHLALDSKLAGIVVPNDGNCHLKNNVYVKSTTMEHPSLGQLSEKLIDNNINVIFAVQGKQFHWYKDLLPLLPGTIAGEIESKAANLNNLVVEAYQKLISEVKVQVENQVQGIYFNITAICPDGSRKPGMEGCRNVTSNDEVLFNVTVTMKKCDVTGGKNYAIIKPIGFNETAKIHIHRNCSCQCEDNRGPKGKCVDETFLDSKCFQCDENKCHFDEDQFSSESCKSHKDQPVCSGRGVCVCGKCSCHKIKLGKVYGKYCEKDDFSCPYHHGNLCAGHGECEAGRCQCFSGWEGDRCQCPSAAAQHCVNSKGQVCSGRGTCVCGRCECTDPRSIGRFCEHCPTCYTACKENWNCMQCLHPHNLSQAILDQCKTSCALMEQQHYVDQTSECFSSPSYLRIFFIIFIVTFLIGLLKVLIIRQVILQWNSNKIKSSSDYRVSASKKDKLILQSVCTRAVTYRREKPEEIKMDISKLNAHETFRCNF
T4 sequence (P06756 31-1048): as the sequence (P06756 31-1048) above
T4 sequence (P18084 24-799): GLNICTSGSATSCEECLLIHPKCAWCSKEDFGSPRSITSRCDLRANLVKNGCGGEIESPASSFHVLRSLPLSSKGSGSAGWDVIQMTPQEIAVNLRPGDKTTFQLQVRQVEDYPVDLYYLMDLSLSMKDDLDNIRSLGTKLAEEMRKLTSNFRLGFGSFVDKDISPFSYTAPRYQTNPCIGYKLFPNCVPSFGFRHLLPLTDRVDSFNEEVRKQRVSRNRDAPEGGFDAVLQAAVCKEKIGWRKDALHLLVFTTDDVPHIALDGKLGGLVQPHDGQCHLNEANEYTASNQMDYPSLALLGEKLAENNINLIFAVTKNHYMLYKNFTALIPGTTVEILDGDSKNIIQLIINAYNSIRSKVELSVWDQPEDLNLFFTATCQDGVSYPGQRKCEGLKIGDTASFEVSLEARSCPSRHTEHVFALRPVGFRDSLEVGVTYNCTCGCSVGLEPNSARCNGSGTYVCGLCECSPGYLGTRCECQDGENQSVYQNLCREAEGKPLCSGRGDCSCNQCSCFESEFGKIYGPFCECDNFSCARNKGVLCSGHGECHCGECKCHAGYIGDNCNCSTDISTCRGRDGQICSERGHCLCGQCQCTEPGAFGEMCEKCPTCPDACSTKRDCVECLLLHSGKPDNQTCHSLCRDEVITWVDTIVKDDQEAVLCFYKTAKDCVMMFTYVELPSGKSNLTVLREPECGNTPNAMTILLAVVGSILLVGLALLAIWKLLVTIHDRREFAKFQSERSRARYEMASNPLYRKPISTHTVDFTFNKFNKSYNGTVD

SMILES	solubility kinetic (physchem) [µM]	IC50 [1] [µM]	IC50 (αvβ6) [µM]	IC50 (αvβ3) [µM]	IC50 (αvβ5) [µM]	IC50 (αvβ8) [µM]
Cc1nn(-c2cccc(C(CC(=O)O)CN3CC[C@@H](CCc4ccc5c(n4)NCCC5)C3)c2)c(C)c1F (stereo partly drawn) [Example 6, 3-(3-(4-Fluoro-3,5-dimethyl-1H-pyrazol-1-yl)phenyl)-4-((R)-3-(2-(5,6,7,8-tetrahydro-1,8-naphthyridin-2-yl)ethyl)pyrrolidin-1-yl)butanoic acid]	437 (≈ 221 µg/mL)	0.02	0.00794	1.58	0.251	0.0501
O=C(O)CC(CN1CC[C@@H](CCc2ccc3c(n2)NCCC3)C1)c1cccc(-n2cccn2)c1 (stereo partly drawn) [Example 4, 3-(3-(1H-Pyrazol-1-yl)phenyl)-4-((R)-3-(2-(5,6,7,8-tetrahydro-1,8-naphthyridin-2-yl)ethyl)pyrrolidin-1-yl)butanoic acid]	388 (≈ 178 µg/mL)	–	–	–	–	–
CCc1cc(C)nn1-c1cccc(C(CC(=O)O)CN2CC[C@@H](CCc3ccc4c(n3)NCCC4)C2)c1 (stereo partly drawn) [Example 3, 3-(3-(5-Ethyl-3-methyl-1H-pyrazol-1-yl)phenyl)-4-((R)-3-(2-(5,6,7,8-tetrahyrdro-1,8-naphthyridin-2-yl)ethyl)pyrrolidin-1-yl)butanoic acid]	276 (≈ 138 µg/mL)	0.00631	0.00794	1	0.126	0.02
CCc1cc(CC)n(-c2cccc(C(CC(=O)O)CN3CC[C@@H](CCc4ccc5c(n4)NCCC5)C3)c2)n1 (stereo partly drawn) [Example 5, 3-(3-(3,5-Diethyl-1H-pyrazol-1-yl)phenyl)-4-((R)-3-(2-(5,6,7,8-tetrahydro-1,8-naphthyridin-2-yl)ethyl)pyrrolidin-1-yl)butanoic acid]	470 (≈ 242 µg/mL)	0.0158	0.00794	0.794	0.251	0.0398
